Experimental findings from the NIST ThermoML archive (doi:10.1021/je0342724) are described below.

For data set [1] the following is noted: Crystal; DTA.
Data set [2] in a line: Molar enthalpy of transition or fusion. The note with it: Crystal; DSC.

Molecules are shown by their SMILES. Numbers after ± are expanded uncertainties.

`Brc1ccc(Br)c(Br)c1` [1,2,4-tribromobenzene]: in data set [1], the Normal melting temperature is 44 ± 1.1 °C. In data set [2], the “Molar enthalpy of transition or fusion” value was 4.28 ± 0.43 kcal/mol.

With `Brc1cc(Br)c(Br)cc1Br` [1,2,4,5-tetrabromobenzene], the Normal melting temperature in data set [1] stood at 181.4 ± 1.1 °C. Also, in data set [2], the “Molar enthalpy of transition or fusion” value amounted to 5.83 ± 0.598 kcal/mol.

Take `Brc1c(Br)c(Br)c(Br)c(Br)c1Br` [hexabromobenzene]: the Normal melting temperature in data set [1] amounted to 325.6 ± 1.1 °C. Also, the “Molar enthalpy of transition or fusion” value in data set [2] came out at 5.88 ± 0.598 kcal/mol.

Consider `Brc1ccc(Br)cc1` [1,4-dibromobenzene], for which, in data set [1], the Normal melting temperature was 84.6 ± 1.1 °C. Besides, the “Molar enthalpy of transition or fusion” value in data set [2] came out at 4.45 ± 0.454 kcal/mol.
